What was measured:
[1] = system: AI90 (ΔgroEL::kan^R) [pBADEL] E. coli strain; test: Plating ability of transformed AI90 (ΔgroEL::kan^R) [pBAD-EL] at 37° C. on depletion of GroEL; format: cell-based
Protocol: AI90 (ΔgroEL::kan^R) [pBAD-EL] cells were transformed with the pJC vector series. Transformants were selected at 37° C. on LB supplemented with 50 μg.ml^−1 of kanamycin, 120 μg.mL^−1 of ampicillin, 25 μg.mL^1 of chloramphenicol and 0.2% L(+)arabinose. Depletion of GroEL protein was analysed at 37° C. by plating the same quantity of AI90 [pBAD-EL+pJC vectors] cells on LB plates containing 1% D(+)glucose or various amount of arabinose.
Each experiment was performed in triplicate. Plasmids carrying no groE genes or encoding the GroE proteins were used as negative or positive controls, respectively.

[2] = system: Lorist6 (bacteriophage λ origin vector); test: Effect of over-expression on Lorist6 replication; format: cell-based, E. coli; conditions: over-expression from pJC vectors in TG1 or SV1
Protocol: Effect on Lorist6 replication of over-expressing of MC7. The effect of over-expressing Gp31 proteins from pJC vector series on the replication of the bacteriophage λ origin vector, Lorist6 (Gibson, T. J., Rosenthal, A. & Waterston, R. H. (1987) Gene 53, 283-286) in TG1 (Gibson, T. J. (1984) Ph.D. thesis, University of Cambridge, U.K) or SV1 (Georgopoulos, C., Hendrix, R. W., Casjens, S. R. & Kaiser, A. D. (1973) J. Mol. Biol. 76, 45-60) cells was determined essentially as described (Chatellier, J., Hill, F., Lund, P. & Fersht, A. R. (1998) Proc. Natl. Acad. Sci. U.S.A. 95, 9861-9866).

[3] = system: mutant Huntingdon exon 1-expressing PC12 and SH-SY5Y cells; test: Inclusion formation and cell death in mutant Huntingdon exon 1-expressing cells on overexpression of chaperones; format: cell-based
Excerpt: These phenomena have been studied by transiently transfecting part of Huntingdon exon 1 in COS-7, PC12, and SH-SY5Y cells. Inclusion formation was not seen with constructs expressing 23 glutamines but was repeat length and time dependent for mutant constructs with 43-74 repeats. HSP70, HSP40, the 20S proteasome and ubiquitin colocalized with inclusions. […] Thus, inclusion formation may be enhanced in polyglutamine diseases, if the pathological process results in proteasome inhibition or a heat-shock response. […] To our knowledge, this is the first report of an HSP increasing aggregation of an abnormally folded protein in mammalian cells and expands the current understanding of the roles of HDJ-2yHSDJ in protein folding (See Wyttenbach, A. et al. (2000) Proc. Natl. Acad. Sci. USA 97, 2899-2903).
We have tested MC72 in the same system.

E. coli SV6 groEL673 = test: In vivo complementation of thermosensitive groEL mutant at 43° C., strain SV6; format: cell-based; conditions: pJC plasmid, relative to growth at 30° C.
Protocol: In vivo complementation experiments. Complementation experiments were performed by transforming electro-competent SV2 or SV6 cells with the pJC series of expression vectors and plating an aliquot of the transformation reactions directly at 43° C. The percentage of viable cells relative to the growth at 30° C. was determined. A representative number of clones which grew at 43° C. were incubated in absence of any selective markers at permissive temperature. After prolonged growth the loss of the pJC plasmids and the ts phenotype were verified. Each experiment was performed in duplicate. Plasmids carrying no groE genes or encoding the GroE proteins were used as negative or positive controls, respectively.

GroEL (1-548): E. coli molecular chaperone, 14 subunits of 57.5 kD in two seven membered rings [reference compound]
Plating ability ([1]; 0.00 % L(+)arabinose): +++ (growth identical to that in presence of 0.2% L(+)arabinose (100%), in terms of both number and size)
Plating ability ([1]; 0.01 % L(+)arabinose): +++ (growth identical to that in presence of 0.2% L(+)arabinose (100%), in terms of both number and size)
Plating ability ([1]; 0.10 % L(+)arabinose): +++ (growth identical to that in presence of 0.2% L(+)arabinose (100%), in terms of both number and size)
Plating ability ([1]; 0.15 % L(+)arabinose): +++ (growth identical to that in presence of 0.2% L(+)arabinose (100%), in terms of both number and size)
Replication of the Lorist6 plasmid [2]: inhibit the replication of the Lorist6 plasmid
cell death [3]: had no effect
inclusion formation [3]: had no effect
Relative colony forming ability, SV6 groEL673 (E. coli SV6 groEL673): 1

From patent publication US20020137891A1, “Protein scaffold and its use to multimerise monomeric polypeptides” (priority 1999, published 2002)
